This is an account of results in ChEMBL document CHEMBL1152334, “Quassinoid inhibition of AP-1 function does not correlate with cytotoxicity or protein synthesis inhibition” (J Nat Prod, 2009).

A short description of one test: Growth inhibition of human NCI60 cells. It is filed as functional.
Conditions: not given
In turn, `CC[C@](C)(O)C(=O)O[C@H]1C(=O)O[C@@H]2C[C@H]3C(C)=CC(=O)[C@@H](O)[C@]3(C)[C@H]3[C@@]4(O)OC[C@]32[C@@H]1[C@@H](C)[C@H]4O` (stereo in doubt) [GLAUCARUBINONE] registered a GI50 of 21 µM.

The test is the same for the next values; noted with them: Homo sapiens, NCI60.
Consider `CC1=CC(=O)[C@H](O)[C@@]2(C)[C@@H]1C[C@H]1OC(=O)[C@@H](OC(=O)C(C)(C)CO)[C@@H]3[C@@H](C)[C@@H](O)[C@]4(O)OC[C@@]31[C@@H]42`, for which it took 0.095 µM to inhibit growth by half (GI50). Compound `CC1=CC(=O)[C@H](O)[C@@]2(C)[C@@H]1C[C@H]1OC(=O)C(OC(=O)CC3=CCCC3)[C@H]3[C@@H](C)[C@@H](O)[C@]4(O)OC[C@]13[C@@H]42` (stereo partly specified) came in with a GI50 of 40 µM.

`COC(=O)[C@@]12OC[C@]34[C@H]([C@H](O)[C@@H]1O)[C@@]1(C)CC(=O)C(OC(C)=O)=C(C)[C@H]1C[C@H]3OC(=O)[C@@H](OC(=O)C=C(C)C)[C@@H]24` came in with a GI50 of 0.79 µM. Compound `C=C1[C@@H](O)[C@@]2(O)OC[C@@]34[C@H]1[C@@H](OC(=O)C/C=C(\C)CCCCC)C(=O)O[C@@H]3C[C@H]1C(C)=CC(=O)[C@@H](O)[C@]1(C)[C@@H]24` gave a GI50 of 0.0015 µM. On to `COC(=O)[C@@]12OC[C@]34[C@H]([C@@H](O)C1O)[C@@]1(C)CC(=O)C(OC(=O)CC(C)C(F)(F)F)=C(C)[C@@H]1C[C@H]3OC(=O)[C@H](O)[C@H]42` (stereo partly specified), for which the concentration for 50% growth inhibition (GI50) is 2.9 µM. `COC(=O)[C@@]12OC[C@]34[C@H]([C@@H](O)C1O)[C@@]1(C)CC(=O)C(O)=C(C)[C@@H]1C[C@H]3OC(=O)[C@H](OC(=O)CC(C)C(F)(F)F)[C@H]42` (stereo partly specified) yielded a concentration for 50% growth inhibition (GI50) of 0.028 µM. Turning to `COC(=O)[C@@]12OC[C@]34[C@H]([C@@H](O)C1O)[C@@]1(C)CC(=O)C(O)=C(C)[C@@H]1C[C@H]3OC(=O)[C@H](OC(=O)/C=C(/c1ccccc1)C(F)(F)F)[C@H]42` (stereo partly specified), the GI50 is 3.6 µM. Compound `C=C1[C@@H](O)[C@]2(O)OC[C@@]34[C@H]1[C@@H](OC(=O)C/C=C/CCCCCCCC)C(=O)O[C@@H]3C[C@H]1C(C)=CC(=O)[C@@H](O)[C@]1(C)[C@@H]24` yielded a concentration for 50% growth inhibition (GI50) of 0.024 µM. In turn, `CC(C)=CC(=O)O[C@H]1C(=O)O[C@@H]2C[C@H]3C(C)=CC(=O)[C@@H](O)[C@]3(C)[C@H]3[C@@]4(O)OC[C@]32[C@@H]1[C@@H](C)[C@H]4O` registered a GI50 of 0.021 µM.

As to `COC(=O)[C@@]12OC[C@]34[C@H]([C@@H](O)C1O)[C@@]1(C)CC(=O)C(OC(=O)/C=C(/c5ccccc5)C(F)(F)F)=C(C)[C@@H]1C[C@H]3OC(=O)[C@H](O)[C@H]42` (stereo partly specified), it took 7.4 µM to inhibit growth by half (GI50). Still for that read-out and setting: the result for `CC(C)=CC(=O)O[C@@H]1[C@H]2C(C)=CC(=O)[C@@H](O)[C@]2(C)[C@H]2[C@@]3(O)OC[C@@]24[C@@H]1OC(=O)C[C@H]4[C@@H](C)[C@H]3O` reads 0.019 µM. Still for that read-out and setting: the result for `COC(=O)[C@@]12OC[C@]34[C@H]([C@@H](O)[C@@H]1O)[C@@]1(C)C=C5OC(=O)C=C5[C@@H](C)[C@@H]1C[C@H]3OC(=O)[C@H](O)[C@@H]24` reads 0.16 µM; that for `CC(C)CC(=O)O[C@H]1C(=O)O[C@@H]2C[C@H]3[C@H](C)C(=O)C(O[C@@H]4O[C@H](CO)[C@@H](O)[C@H](O)[C@H]4O)=C[C@]3(C)[C@H]3[C@@H](O)[C@H](O)[C@]4(C(=O)O)OC[C@]32[C@@H]14` [BRUCEOSIDE E], 52 µM. The same measure, in the same setting: the result for `CC(=O)OC(C)(C)/C(C)=C/C(=O)O[C@H]1C(=O)O[C@@H]2C[C@H]3[C@H](C)C(=O)C(O[C@@H]4O[C@H](CO)[C@@H](O)[C@H](O)[C@H]4O)=C[C@]3(C)[C@H]3[C@@H](O)[C@H](O)[C@]4(C(=O)O)OC[C@]32[C@@H]14` [BRUCEOSIDE F] reads 74 µM. As to `CC1=CC(=O)[C@@H](O)[C@]2(C)[C@H]3[C@]4(O)OC[C@]35[C@H]([C@@H](C)[C@H]4O)[C@@H](O)C(=O)O[C@@H]5C[C@@H]12` [GLAUCARUBOLONE], it took 0.29 µM to inhibit growth by half (GI50).

What is called GI50 is the concentration giving 50% growth inhibition. Lower therefore signals greater sensitivity of the cells.
